# Values quoted from earlier work, collected in patent US9597377B2, “Stable formulations of purified proteins” (MOUNT SINAI SCHOOL OF MEDICINE OF NEW YORK UNIVERSITY, priority 2003, dated 2017).
# Changes are numbered by the printed parent chain.
# Key:
# [1] = target: T1, wild-type α-Gal A in COS-7 cells (Homo sapiens, UniProt P06280); details: COS-7 cells transfected with vector coding wild-type α-Gal A; cited from earlier work
# T1 construct: expressed in transfected cells; host or cells: COS-7 cells
# T1 sequence (P06280 32-429): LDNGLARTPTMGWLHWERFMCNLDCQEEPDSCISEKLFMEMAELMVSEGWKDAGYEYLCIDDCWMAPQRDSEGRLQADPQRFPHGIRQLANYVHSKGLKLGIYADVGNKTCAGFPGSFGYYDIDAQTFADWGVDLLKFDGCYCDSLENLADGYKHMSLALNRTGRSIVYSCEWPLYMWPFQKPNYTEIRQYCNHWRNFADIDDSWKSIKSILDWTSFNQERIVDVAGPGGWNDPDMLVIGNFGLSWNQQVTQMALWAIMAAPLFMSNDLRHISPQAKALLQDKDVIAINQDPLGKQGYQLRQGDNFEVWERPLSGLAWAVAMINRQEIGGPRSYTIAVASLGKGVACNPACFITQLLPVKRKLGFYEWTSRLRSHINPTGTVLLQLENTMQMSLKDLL
# mutant α-Gal A (R301Q) = target: T2, mutant α-Gal A (R301Q) (Homo sapiens, UniProt P06280, R301Q); details: neutral pH; cited from earlier work
# T2 sequence (P06280 32-429 R301Q): T1 sequence (P06280 32-429) with R270Q
# [2] = system: lymphoblasts established from Fabry patients with R301Q or Q279E mutations; details: cited from earlier work
# mutant (R301Q) α-Gal A = target: T3, mutant (R301Q) α-Gal A (Homo sapiens, UniProt P06280, R301Q); details: oral administration, transgenic mice overexpressing mutant (R301Q) α-Gal A; cited from earlier work
# T3 construct: host or cells: transgenic mice overexpressing the mutant enzyme; activity measured in major organs
# T3 sequence (P06280 32-429 R301Q): T1 sequence (P06280 32-429) with R270Q
smiles,measurement,setting,value
"OC[C@H]1NC[C@H](O)[C@@H](O)[C@H]1O [DGJ, 1-deoxygalactonojirimycin]",amount and activity of wild-type α-Gal A,[1],increase the amount and activity
same,in vitro stability of mutant α-Gal A (R301Q),mutant α-Gal A (R301Q),effectively increased in vitro stability
same,mutant enzyme activity in lymphoblasts,[2],enhanced the mutant enzyme activity
same,enzyme activity in major organs,mutant (R301Q) α-Gal A,substantially elevated the enzyme activity
